Data published in patent publication US20230000848A1, “METHODS OF TREATING NASH” (Gilead Sciences, Inc., priority 2021, published 2023).

Assays:
liver cytokine levels [1] = assay: Liver cytokine levels by ELISA from liver lysates, GAN mouse model; assay type: in vivo, mice
Procedure: (§1) The effect of COT inhibitor Compound A, ACC inhibitor Compound B, Cenicriviroc (CVC), and the combination of Compound A and Compound B in the Gubra amylin NASH mouse model (GAN) was determined.

[2] = Body weight, Gubra amylin NASH (GAN) mouse model; assay type: in vivo, mice; details: 60 mg/kg PO BID, after 84 days of dosing
Procedure: as §1
FIG. 5 plots the body weight of treatment group 1 (wt), vehicle (treatment group 2), COT inhibitor (Compound A, 60 mg/kg BID), ACC inhibitor (Compound B, 10 mg/Kg QD), and combination of Compound A and Compound B (treatment group 4) in the Gubra amylin NASH (GAN) mouse model. Cenicriviroc (CVC) used as a control (100 mg/Kg QD).

liver cytokine levels [3] = assay: Liver cytokine levels by ELISA from liver lysates, rat CDHFD model; assay type: in vivo, Male Wistar Han Rats; details: TPL2i = group 4, TPL2i+ACCi = group 6, vs vehicle
Procedure: (§2) Compound A and Compound B were studied in a Choline Deficient High Fat Diet (CDHFD) model as described below. Rats enrolled in this study were first fed a choline deficient high fat diet (CDHFD) for 42 days prior to test article administration Animals were then split into treatment groups 1-8 and test article was administered as detailed in Table 1 for 42 days.

[4] = tested on: Gubra amylin NASH (GAN) mouse model; assay: NAFLD activity score from H&E stained liver sections, GAN mouse model; assay type: in vivo, mice; details: 60 mg/kg BID
Procedure: The effect of COT inhibitor Compound A, ACC inhibitor Compound B, Cenicriviroc (CVC), and the combination of Compound A and Compound B in the Gubra amylin NASH mouse model (GAN) was determined. [table] FIG. 10 plots NAFLD activity score of Compound A (60 mg/kg BID), Compound B (10 mg/Kg QD), CVC (100 mg/Kg QD), and the combination Compound A and Compound B in from liver tissue the Gubra amylin NASH mouse model. CVC=Cenicriviroc, used as a control (100 mg/Kg QD). Individual components comprising the NAFLD score includes hepatocellular ballooning (FIG. 11A), lobular inflammation (FIG. 11B), and steatosis score (FIG. 11C). NAFLD activity score was determined by scoring of steatosis, inflammation, and hepatocyte ballooning from hematoxylin and eosin stained liver sections.

[5] = tested on: Gubra amylin NASH (GAN) mouse model; assay: Liver total cholesterol, GAN mouse model; assay type: in vivo, mice; details: treatment group 3 (60 mg/kg BID)
Procedure: as §1
FIG. 12 plots the liver total cholesterol levels for treatment group 1 (wt), vehicle (treatment group 2), COT inhibitor (Compound A, treatment group 3), ACC inhibitor (Compound B, treatment group 5), and combination of Compound A and Compound B (treatment group 4) in the Gubra amylin NASH (GAN) mouse model. Cenicriviroc (CVC) used as a control (treatment group 6). Total cholesterol levels were calculated from was measured using commercial kits (Roche Diagnostics) on the cobas c 501 autoanalyzer according to the manufacturer's instructions.

[6] = tested on: Choline Deficient High Fat Diet (CDHFD) model of fatty liver; assay: Liver hydroxyproline (OH-P) content, rat CDHFD model; assay type: in vivo, Male Wistar Han Rats; details: 100 mg/Kg PO BID (treatment group 4), 42 days, vs vehicle group 2
Procedure: as §2
Liver tissue obtained at the end of the study was subjected to picrosirius red staining (PSR) was assessed according to standard techniques. Liver hydroxyproline content was measured from cryopowdered liver tissue. Chloramine-T was used to oxidize the free hydroxyproline for the production of a pyrrole. Addition of Ehrlich's reagent results in the formation of a chromophore that can be measured at 550 nm on a spectramax plate reader.
FIG. 3 plots liver hydroxyproline (OH—P) content from liver tissue for control (treatment group 1), start and end for the vehicle (treatment group 2), COT inhibitor (Compound A referred to as TPL2i, low dose=100 mg/Kg QD, high dose=100 mg/Kg BID), ACC inhibitor (Compound B referred to as ACCi, 10 mg/kg QD), and coadministration of Compound B with Compound A (treatment group 5 (TPL2i low dose+ACCi) and treatment group 6 (TPL2i high dose+ACCi)). Liver hydroxyproline (OH—P) content was calculated from liver tissue samples. […]

[7] = tested on: Gubra amylin NASH (GAN) mouse model; assay: Picrosirius red staining (PSR) of liver tissue, GAN mouse model; assay type: in vivo, mice
Procedure: as §1
(§3) FIG. 8 plots liver fibrosis levels based on percent PSR for treatment group 1 (wt), vehicle (treatment group 2), COT inhibitor (Compound A, treatment group 3), ACC inhibitor (Compound B, treatment group 5), and combination of Compound A and Compound B (treatment group 4) in the Gubra amylin NASH (GAN) mouse model. Cenicriviroc (CVC) used as a control (treatment group 6).

[8] = tested on: Choline Deficient High Fat Diet (CDHFD) model of fatty liver; assay: Picrosirius red staining (PSR) of liver tissue, rat choline deficient high fat diet (CDHFD) model; assay type: in vivo, Male Wistar Han Rats; details: for fibrosis as measured by PSR, decrease relative to vehicle: vs vehicle group 2
Procedure: Compound A and Compound B were studied in a Choline Deficient High Fat Diet (CDHFD) model as described below. Rats enrolled in this study were first fed a choline deficient high fat diet (CDHFD) for 42 days prior to test article administration Animals were then split into treatment groups 1-8 and test article was administered as detailed in Table 1 for 42 days. [table] Liver tissue obtained at the end of the study was subjected to picrosirius red staining (PSR) was assessed according to standard techniques. Liver hydroxyproline content was measured from cryopowdered liver tissue. Chloramine-T was used to oxidize the free hydroxyproline for the production of a pyrrole. Addition of Ehrlich's reagent results in the formation of a chromophore that can be measured at 550 nm on a spectramax plate reader. FIG. 2 plots the PSR (% area) for control (treatment group 1), start and end for the vehicle (treatment group 2), COT inhibitor (Compound A referred to as TPL2i, 100 mg/Kg QD (low dose), 100 mg/Kg BID (high dose)), ACC inhibitor (Compound B referred to as ACCi, 10 mg/kg QD), and coadministration of Compound B with Compound A (treatment groups 5 and 6). Data in FIG. 2 is based on all animals in the treatment group. In FIG. 2, a higher value for PSR % area is reflective of a higher level of fibrosis.

[9] = tested on: Gubra amylin NASH (GAN) mouse model; assay: Alpha-smooth muscle actin (aSMA) IHC on liver tissue, GAN mouse model; assay type: in vivo, mice; details: treatment group 3 (60 mg/kg BID) vs vehicle group 2, % area IHC
Procedure: as §1
as §3, with “9” for “8”, “plots the […] (aSMA) levels from” for “plots”, “tissue of” for “fibrosis levels based on percent PSR for”, “6). Alpha-smooth muscle actin (aSMA) levels were calculated from % area of alpha-SMA antibody staining on liver tissue (IHC).” for “6).”

[10] = Whole body fat mass by ECHO MRI, GAN mouse model; assay type: in vivo, mice; details: 60 mg/kg PO BID, after 84 days of dosing
Procedure: as §1
as §3, with “6” for “8”, “the” for “liver fibrosis levels based on”, “fat mass of” for “PSR for”, “6). Fat mass was calculated by ECHO MRI.” for “6).”

CCCCOCCOc1ccc(-c2ccc3c(c2)/C=C(/C(=O)Nc2ccc([S@@+]([O-])Cc4cncn4CCC)cc2)CCCN3CC(C)C)cc1 [CVC, Cenicriviroc, reference compound]
liver cytokine levels (liver cytokine levels [1]; treatment group 6 (100 mg/Kg)): Changes in cytokine levels were not observed

Cc1nc(F)ccc1[C@H](Nc1cc(Cl)c2ncc(C#N)c(NCC(C)(C)C)c2c1)c1cn(C2(C(F)F)CC2)nn1 [Compound A]
body weight decrease [2]: 16%
liver IL-1β level (liver cytokine levels [1]; treatment group 3 vs vehicle): statistically significant decreases
liver KC/GRO level (liver cytokine levels [1]; treatment group 3 vs vehicle): statistically significant decreases
liver MCP-1 level (liver cytokine levels [1]; treatment group 3 vs vehicle): statistically significant decreases
liver TNF-α level (liver cytokine levels [1]; treatment group 3 vs vehicle): statistically significant decreases
liver IL-1b level (liver cytokine levels [3]): statistically significant decreases
liver IL-10 level (liver cytokine levels [3]): statistically significant decreases
liver IL-18 level (liver cytokine levels [3]): statistically significant decreases
liver MIP1-α level (liver cytokine levels [3]): statistically significant decreases
NAFLD activity score at the end of the study compared to vehicle [4]: more animals had a lower NAFLD activity score
Liver total cholesterol reduction [5]: 40%
reduction in liver hydroxyproline compared to vehicle [6]: 38%
fibrosis measured by PSR, decrease compared to vehicle ([7]; 60 mg/kg PO BID (treatment group 3) vs vehicle group 2): 46%
PSR relative to Compound B alone ([7]; BID treatment): reduced PSR
fibrosis as measured by PSR, decrease relative to vehicle ([8]; 100 mg/Kg PO BID (treatment group 4, TPL2i high dose), 42 days): 55%
fibrosis as measured by PSR, decrease relative to vehicle ([8]; 100 mg/Kg PO QD (treatment group 3, TPL2i low dose), 42 days): 41%
liver fibrosis in PSR stained liver tissue (FIG. 1) compared to vehicle ([8]; treatment group 4 (100 mg/Kg BID) vs vehicle group 2): less liver fibrosis
Alpha-smooth muscle actin (aSMA) levels, reduction compared to vehicle [9]: 41%
fat mass decrease [10]: 31%

COc1ccccc1[C@H](Cn1c(=O)n(C(C)(C)C(=O)O)c(=O)c2c(C)c(-c3ncco3)sc21)O[C@H]1CC[C@@H](O)CC1 [Compound B]
PSR reduction ([8]; 10 mg/kg PO QD (treatment group 7), 42 days): 33%
